# Measured values reported in patent US11427548B2 (Arvinas Operations, Inc., priority 2015, dated 2022).
# Read-outs that look alike come from different tables or passages of the source.
# Molecular target: T1, Androgen Receptor (Homo sapiens, UniProt P10275)
# T1 construct: endogenous in cells; host or cells: VCaP cells
# T1 sequence (P10275 1-920): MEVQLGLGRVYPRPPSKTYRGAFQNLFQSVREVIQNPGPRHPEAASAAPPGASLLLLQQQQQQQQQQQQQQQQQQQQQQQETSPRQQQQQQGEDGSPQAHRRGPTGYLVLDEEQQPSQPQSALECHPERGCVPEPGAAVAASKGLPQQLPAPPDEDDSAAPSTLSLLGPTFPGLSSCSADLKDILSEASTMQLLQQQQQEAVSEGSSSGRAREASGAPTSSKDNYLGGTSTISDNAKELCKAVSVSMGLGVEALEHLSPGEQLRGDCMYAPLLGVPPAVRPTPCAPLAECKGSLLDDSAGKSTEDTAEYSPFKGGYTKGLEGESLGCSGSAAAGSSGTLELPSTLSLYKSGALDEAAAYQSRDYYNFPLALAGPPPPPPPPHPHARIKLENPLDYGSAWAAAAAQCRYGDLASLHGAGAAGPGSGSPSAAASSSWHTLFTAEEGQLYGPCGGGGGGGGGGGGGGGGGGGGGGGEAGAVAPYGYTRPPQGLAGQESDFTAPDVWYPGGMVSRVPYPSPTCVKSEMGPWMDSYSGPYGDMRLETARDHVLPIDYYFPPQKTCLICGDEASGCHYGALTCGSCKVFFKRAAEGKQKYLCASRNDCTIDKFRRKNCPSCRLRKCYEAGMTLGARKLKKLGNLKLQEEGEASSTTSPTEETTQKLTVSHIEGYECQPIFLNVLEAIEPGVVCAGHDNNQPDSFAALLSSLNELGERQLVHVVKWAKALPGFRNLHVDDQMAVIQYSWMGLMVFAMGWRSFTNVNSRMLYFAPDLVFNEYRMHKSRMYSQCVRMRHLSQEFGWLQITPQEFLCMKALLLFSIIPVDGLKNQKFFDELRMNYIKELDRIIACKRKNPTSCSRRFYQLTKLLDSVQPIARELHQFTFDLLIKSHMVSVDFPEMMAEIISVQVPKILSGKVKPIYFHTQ
# Experiment: Androgen Receptor ELISA assay (PathScan AR ELISA) in VCaP cells: AR degradation, Dmax and DC50
# Assay type: cell-based
# In short: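 After 24 h exposure of VCaP cells (charcoal-stripped serum, 0.1 nM R1881 agonist, 0.1% DMSO) to seven half-log compound concentrations, residual AR in lysates was measured by PathScan ELISA (TMB absorbance, 450 nm). Cells were plated at 30,000/well and grown at least 3 days beforehand.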
# [1] = VCaP cells; Table 36; read-out: VCaP DC50
# [2] = VCaP, VCaP cells; Table 36; read-out: VCaP Dmax (%)
# [3] = VCaP, VCaP cells; Table 35; read-out: VCaP Dmax (%)
DC50 [1],Dmax [2],Structure (SMILES),"Dmax (VCaP, read-out: VCaP Dmax (%))",other results
> 501 nM,< 25%,"Cc1ncsc1-c1ccc(CNC(=O)[C@@H]2C[C@@H](O)CN2C(=O)[C@@H](C(C)C)N2Cc3ccc(N4CCN(CCCc5ccc(C(=O)N[C@H]6C(C)(C)[C@H](Oc7ccc(C#N)c(Cl)c7)C6(C)C)cc5)CC4)cc3C2=O)cc1 [Example 773, (2S,4R)-1-((R)-2-(6-(4-(3-(4-(((1r,3r)-3-(3-chloro-4-cyanophenoxy)-2,2,4,4-tetramethylcyclobutyl)carbamoyl)phenyl)propyl)piperazin-1-yl)-1-oxoisoindolin-2-yl)-3-methylbutanoyl)-4-hydroxy-N-(4-(4-methylthiazol-5-yl)benzyl)pyrrolidine-2-carboxamide]",–,–
–,–,CC(C)(C)[C@H](NC(=O)COCC1CC2(C1)CC(COc1ccc(N3C(=S)N(c4ccc(C#N)c(Cl)c4)C(=O)C3(C)C)cc1)C2)C(=O)N1C[C@H](O)C[C@H]1C(=O)NCc1ccc(-c2cnco2)cc1 (stereo partly drawn) [Example 200],> 71%,DC50 (read-out: VCaP DC50; VCaP cells; concentration that caused 50% Androgen Receptor degradation): < 50 nM
–,–,"COc1cc(N2C(=O)C(C)(C)N(c3ccc(OCCCCOCCCOCC(=O)N[C@H](C(=O)N4C[C@H](O)C[C@H]4C(=O)NCc4ccc(-c5scnc5C)cc4)C(C)(C)C)c(F)c3)C2=S)ccc1C#N [Example 42, (2S,4R)-1-[(2S)-2-{2-[3-(4-{4-[3-(4-cyano-3-methoxyphenyl)-5,5-dimethyl-4-oxo-2-sulfanylideneimidazolidin-1-yl]-2-fluorophenoxy}butoxy)propoxy]acetamido}-3,3-dimethylbutanoyl]-4-hydroxy-N-{[4-(4-methyl-1,3-thiazol-5-yl)phenyl]methyl}pyrrolidine-2-carboxamide]",–,"Dmax (VCaP, highest percentage of Androgen Receptor degradation observed, VCaP cells; read-out: VCaP Dmax (%)): 51 to 70%; DC50 (concentration that caused 50% Androgen Receptor degradation, VCaP cells; read-out: VCaP DC50): < 50 nM"
–,–,"Cc1ncsc1-c1ccc(CNC(=O)[C@@H]2C[C@@H](O)CN2C(=O)[C@@H](C(C)C)n2cc(OCC#CC#CCOc3ccc(N4C(=S)N(c5ccc(C#N)c(C(F)(F)F)c5)C(=O)C4(C)C)cc3)cn2)cc1 (racemic) [Example 616, 1-(2-(4-((6-(4-(3-(4-cyano-3-(trifluoromethyl)phenyl)-5,5-dimethyl-4-oxo-2-thioxoimidazolidin-1-yl)phenoxy)hexa-2,4-diyn-1-yl)oxy)-1H-pyrazol-1-yl)-3-methylbutanoyl)-4-hydroxy-N-(4-(4-methylthiazol-5-yl)benzyl)pyrrolidine-2-carboxamide]",< 25%,DC50 (read-out: VCaP DC50; VCaP cells; Table 36): > 501 nM
–,–,"Cc1ncsc1-c1ccc(CNC(=O)[C@@H]2C[C@@H](O)CN2C(=O)[C@@H](NC(=O)COCCCCOc2cccc(-c3ccc(N4C(=S)N(c5ccc(C#N)c(C(F)(F)F)c5)C(=O)C4(C)C)cc3)c2)C(C)(C)C)cc1 [Example 99, (2S,4R)-1-[(2S)-2-(2-{4-[3-(4-{3-[4-cyano-3-(trifluoromethyl)phenyl]-5,5-dimethyl-4-oxo-2-sulfanylideneimidazolidin-1-yl}phenyl)phenoxy]butoxy}acetamido)-3,3-dimethylbutanoyl]-4-hydroxy-N-{[4-(4-methyl-1,3-thiazol-5-yl)phenyl]methyl}pyrrolidine-2-carboxamide]",51 to 70%,"DC50 (read-out: VCaP DC50; concentration that caused 50% Androgen Receptor degradation, VCaP cells (Table 32)): < 50 nM"
< 50 nM,51 to 70%,"Cc1ncsc1-c1ccc(CNC(=O)[C@@H]2C[C@@H](O)CN2C(=O)[C@@H](NC(=O)CN2CCN(CCOc3ccc(C(=O)N[C@H]4C(C)(C)[C@H](Oc5ccc(C#N)c(Cl)c5)C4(C)C)cc3)CC2)C(C)(C)C)cc1 [Example 645, (2S,4R)-1-((S)-2-(2-(4-(2-(4-(((1r,3r)-3-(3-chloro-4-cyanophenoxy)-2,2,4,4-tetramethylcyclobutyl)carbamoyl)phenoxy)eth-yl)piperazin-1-yl)acetamido)-3,3-dimethylbutanoyl)-4-hydroxy-N-(4-(4-methylthiazol-5-yl)benzyl)pyrrolidine-2-carboxamide]",–,–
–,–,Cc1ncsc1-c1ccc(CNC(=O)[C@@H]2C[C@@H](O)CN2C(=O)[C@@H](NC(=O)CNCCCCOCCCOc2ccc(N3C(=S)N(c4ccc(C#N)c(C(F)(F)F)c4)C(=O)C3(C)C)cc2)C(C)(C)C)cc1 [Example 316],26 to 50%,DC50 (read-out: VCaP DC50; VCaP cells; Table 34): 51 to 500 nM
–,–,Cc1ncsc1-c1ccc(CNC(=O)[C@@H]2C[C@@H](O)CN2C(=O)[C@@H](NC(=O)COC[C@@H](O)[C@H](O)COc2ccc(-c3ccc(N4C(=S)N(c5ccc(C#N)c(C(F)(F)F)c5)C(=O)C4(C)C)cc3)cc2)C(C)(C)C)cc1 [Example 566],51 to 70%,DC50 (read-out: VCaP DC50; VCaP cells; Table 35): < 50 nM
–,–,Cc1ncsc1-c1ccc(CNC(=O)[C@@H]2C[C@@H](O)CN2C(=O)[C@@H](NC(=O)COCCCOCCCCCOc2ccc(N3C(=S)N(c4ccccc4)C(=O)C3(C)C)cc2)C(C)(C)C)cc1 [Example 477],–,Dmax [3]: < 25%
–,–,CC(C)(C)[C@H](NC(=O)COCCCCCNc1ccc(C(=O)N[C@H]2C(C)(C)[C@H](Oc3ccc(C#N)c(Cl)c3)C2(C)C)cc1)C(=O)N1C[C@H](O)C[C@H]1C(=O)NCc1ccc(C#N)cn1 [Example 539],–,DC50 (VCaP cells; Table 35; read-out: VCaP DC50): < 50 nM; Dmax [3]: 26 to 50%
< 50 nM,> 71%,"Cc1ncsc1-c1ccc([C@H](C)NC(=O)C2C[C@@H](O)CN2C(=O)C(NC(=O)CN2CCC(OCCOc3ccc(C(=O)N[C@H]4C(C)(C)[C@H](Oc5ccc(C#N)c(Cl)c5)C4(C)C)cc3)CC2)C(C)(C)C)cc1 (stereo partly drawn) [Example 623, (2S,4R)-1-((S)-2-(2-(4-(2-(4-(((1r,3r)-3-(3-chloro-4-cyanophenoxy)-2,2,4,4-tetramethylcyclobutyl)carbamoyl)phenoxy)eth-oxy)piperidin-1-yl)acetamido)-3,3-dimethylbutanoyl)-4-hydroxy-N-((S)-1-(4-(4-methylthiazol-5-yl)phenyl)ethyl)pyrrolidine-2-carboxamide]",–,–
< 50 nM,51 to 70%,"Cc1ncsc1-c1ccc([C@H](C)NC(=O)C2C[C@@H](O)CN2C(=O)C(NC(=O)CCC(F)(F)CN2CCN(c3ccc(C(=O)N[C@H]4C(C)(C)[C@H](Oc5ccc(C#N)c(Cl)c5)C4(C)C)cn3)CC2)C(C)(C)C)cc1 (stereo partly drawn) [Example 799, N-((1r,3r)-3-(3-chloro-4-cyanophenoxy)-2,2,4,4-tetramethylcyclobutyl)-6-(4-(2,2-difluoro-5-(((S)-1-((2S,4R)-4-hydroxy-2-(((S)-1-(4-(4-methylthiazol-5-yl)phenyl)ethyl)carbamoyl)pyrrolidin-1-yl)-3,3-dimethyl-1-oxobutan-2-yl)amino)-5-oxopentyl)piperazin-1-yl)nicotinamide]",–,–
> 501 nM,< 25%,"Cc1ncsc1-c1ccc(C(NC(=O)[C@@H]2C[C@@H](O)CN2C(=O)C(NC(=O)COCCN2CCN(c3ccc(C(=O)N[C@H]4C(C)(C)[C@H](Oc5ccc(C#N)c(C(F)(F)F)c5)C4(C)C)cn3)CC2)C(C)(C)C)C2COC2)cc1 (stereo partly drawn) [Example 704, N-((1r,3r)-3-(4-cyano-3-(trifluoromethyl)phenoxy)-2,2,4,4-tetramethylcyclobutyl)-6-(4-(2-(2-(((S)-1-((2S,4R)-4-hydroxy-2-(((R)-(4-(4-methylthiazol-5-yl)phenyl)(oxetan-3-yl)methyl)carbamoyl)pyrrolidin-1-yl)-3,3-dimethyl-1-oxobutan-2-yl)amino)-2-oxoethoxy)ethyl)pipera-zin-1-yl)nicotinamide]",–,–

Structure (SMILES),DC50 [1],Dmax [2],"Dmax (VCaP, read-out: VCaP Dmax (%))",other results
"Cc1ncsc1-c1ccc([C@H](C)NC(=O)[C@@H]2C[C@@H](O)CN2C(=O)[C@@H](NC(=O)CN2CCN(CCC3CCN(c4ccc(C(=O)N[C@H]5C(C)(C)[C@H](Oc6ccc(C#N)c(Cl)c6)C5(C)C)cn4)C3)CC2)C(C)(C)C)cc1 (stereo partly drawn) [Example 829, N-((1r,3r)-3-(3-chloro-4-cyanophenoxy)-2,2,4,4-tetramethylcyclobutyl)-6-(3-(2-(4-(2-(((S)-1-((2S,4R)-4-hydroxy-2-(((S)-1-(4-(4-methylthiazol-5-yl)phenyl)ethyl)carbamoyl)pyrrolidin-1-yl)-3,3-dimethyl-1-oxobutan-2-yl)amino)-2-oxoethyl)piperazin-1-yl)ethyl)pyrrolidin-1-yl)nicotinamide]",< 50 nM,–,> 71%,–
